Source: paper PMC6173696, “Structural properties of a haemophore facilitate targeted elimination of the pathogen Porphyromonas gingivalis” (Nature Communications, 2018)

Key:
HusA Y164A = molecular target: T1, HusA Y164A (Porphyromonas gingivalis, UniProt Q7MSY3, Y164A); test: Tryptophan fluorescence quenching assay, HusA mutant Y164A; assay type: binding
T1 sequence (Q7MSY3 24-218 Y164A): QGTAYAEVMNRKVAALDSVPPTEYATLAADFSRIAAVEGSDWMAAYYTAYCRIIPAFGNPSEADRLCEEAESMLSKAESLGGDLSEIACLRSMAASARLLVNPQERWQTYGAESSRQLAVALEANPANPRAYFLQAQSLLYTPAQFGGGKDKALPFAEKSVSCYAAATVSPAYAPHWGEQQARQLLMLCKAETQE
Description: (§1) The quenching of intrinsic tryptophan fluorescence of HusA upon porphyrin additions was measured using a Carey Eclipse Fluorescence Spectrophotometer (Agilent) set to a photo multiplier effect (PME) of 850. A 5-mm path length quartz cuvette was used and all spectra were acquired at room temperature. Excitation was set to 295 nm and emission was measured from 300 nm to 500 nm using excitation/emission slit widths of 5 nm. Binding assays were performed at a protein concentration of 1 μM HusA in standard buffer at a working volume of 0.5 mL. […] The fluorescence quenching of HusA by PPIX was investigated in a similar manner with the following difference: the fluorescence intensities of ten 1 μM HusA samples were measured each with increasing amounts of PPIX after a 2-h incubation period to allow equilibrium to be reached. See Supplementary Methods for correction for inner filter effect and curve fitting. […]
Correction of inner filter effect and curve fitting in tryptophan fluorescence quenching assays The concentration of NATA was chosen such that the raw fluorescence intensity was similar to the 10 uM concentrations of HusA and mutants used. […] Fluorescence intensity was scaled with respect to the starting florescence and corrected for the inner filter effect. Fluorescence at 335 nm was used to fit binding curves. […]

HusA W130N = molecular target: T2, HusA W130N (Porphyromonas gingivalis, UniProt Q7MSY3, W130N); test: Tryptophan fluorescence quenching assay, HusA mutant W130N; assay type: binding
T2 sequence (Q7MSY3 24-218 W130N): T1 sequence (Q7MSY3 24-218 Y164A)

p22HBP = molecular target: T3, p22HBP (Mus musculus, UniProt Q9R257); test: Acid-alkaline transition of UV-vis spectra, haemin bound to p22HBP; assay type: physicochemical; conditions: haemin bound to murine p22HBP
T3 sequence (Q9R257 1-190): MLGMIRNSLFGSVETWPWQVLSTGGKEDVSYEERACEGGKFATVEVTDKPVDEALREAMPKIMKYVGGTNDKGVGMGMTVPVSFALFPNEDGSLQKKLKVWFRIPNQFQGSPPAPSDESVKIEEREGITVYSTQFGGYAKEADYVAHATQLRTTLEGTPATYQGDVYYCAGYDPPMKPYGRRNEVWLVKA
Description: Supplementary Figure 16. Acid-alkaline transition in UV-vis spectra of various haem binding proteins. (Top) UV-visible spectra (units of wavelength are nm) used to generate the pH titration curves shown in Figure 2h and in the bottom panel. (Bottom) Acid-alkaline titration of 5 µM haemin in presence of 7 µM IsdH, 5 µM IsdB, 7 µM IsdH(Y642A) and 7 µM p22HBP. All proteins are in holo form. See Fig 2h legend for buffer conditions. Absorbance A600–A650 values are plotted except for IsdH and IsdB, for which A630–A600 is plotted (to avoid negative values). […]

HusA NNNA = test: Haemin binding to HusA mutant with all four mutations (NNNA), UV-vis and fluorescence; design: species or system Porphyromonas gingivalis; conditions: mutant incorporating all four mutations (L123, V124, W130, Y164)
Description: All absorbance spectra were recorded at room temperature using 10-mm quartz cuvettes on a Shimadzu UV-1601 or Jasco V-630 spectrophotometer. Mixtures of HusA/mutant with porphyrins were prepared by dissolving porphyrin stocks in standard buffer to a final concentration of 5–20 μM with a 1–1.5 molar ratio of protein to porphyrin, as specified in the relevant figure legends. PPIX:HusA mixtures were prepared by incremental addition of 2–4 μM HusA with a 10–15 min wait after each addition of HusA.
as §1, with “reached.” for “reached. See Supplementary Methods for correction for inner filter effect and curve fitting.”

HusA = test: Acid-alkaline transition of UV-vis spectra, haemin bound to HusA and Y164A/F mutants; assay type: physicochemical, Porphyromonas gingivalis; conditions: haemin bound to HusA and the Y164A/F mutants
Description: Spectra were recorded in 0.1 M NaCl with 0.1 M of the following buffers: citrate, pH 5.0; BisTris-HCl, pH 5.5; BisTris-HCl, pH 5.75: BisTris-HCl, pH 6.0; sodium phosphate, pH 6.5; sodium phosphate, pH 7.0; sodium phosphate, pH 7.5; Tris-HCl, pH 8.0; sodium borate, pH 9.0; sodium borate/NaOH, pH 9.8; sodium carbonate, pH 10.0 (not all titration points were collected for each protein)

## C=CC1=C(C)c2cc3[nH]c(cc4nc(cc5[nH]c(cc1n2)c(C)c5CCC(=O)O)C(CCC(=O)O)=C4C)c(C)c3C=C.[Fe+3] [haemin]
HusA Y164A
  reduction of haemin affinity compared to wild-type: > 50%
HusA W130N
  reduction of haemin affinity compared to wild-type: > 50%
p22HBP
  pKa of acid-alkaline transition: 6.2
HusA NNNA
  binding to haemin: minimal binding
HusA
  pKa of acid-alkaline transition: 6.1–6.5
HusA; listed as haem
  pKa of acid-alkaline transition: 6-6.5
